Assay results from paper PMC9705435, “Thiocarbazate building blocks enable the construction of azapeptides for rapid development of therapeutic candidates” (Nature Communications, 2022).
Entries after “also recorded” stand apart in the source; their conditions may differ.

Experiments:
murine monocytes = experiment: HMGB1-stimulated TNF release in murine splenic monocytes (ELISA); assay type: cell-based, mouse; details: 0.1, 1 or 10 µM peptide, HMGB1 1 µg/ml, 24 h
Text: 4.2 HMGB1 protein preparation
For TNF ELISA experiments, […]

[1] = test system: mouse model of acetaminophen-induced liver toxicity; experiment: Acetaminophen (APAP)-induced liver toxicity in mice; assay type: in vivo; details: vs scrambled peptide; for liver function enzymes and plasma cytokines / pro-inflammatory markers: APAP 200 mg/kg IP, 50 µg/mouse at 2 and 7 hours post-APAP, 24 h; for protection / survival in APAP toxicity model: APAP 400 mg/kg, 50 µg/mouse IP at 2 h post-APAP, then once a day for 5 days
[2] = mouse whole blood
in vitro = details: male, C57BL/6J, mouse, blood
[3] = test system: STZ-induced type 1 diabetic (T1D) mice; experiment: Low-dose streptozotocin (STZ)-induced type 1 diabetes in mice; details: 500 µg/mouse/day i.p.
Protocol: Data are presented as means ± SD. […] Mice were simultaneously injected i.p. with saline, FSSE (500 µg/mouse/day), or azaF^1SSazaE^4 (500 µg/mouse/day). Blood glucose was measured on day 0, 7 and 14. Number of mice per group: saline n = 7; FSSE n = 8; azaF^1SSazaE^4 n = 8. Data are presented as mean values ± SEM. […] Serum samples from mice challenged with STZ were collected at day 14 and analyzed by ELISA. n = 7 mice per group. Data are presented as mean values ± SEM. […] Number of islets per group: saline n = 3, 13 islets; FSSE n = 2, 11 islets; azaF^1SSazaE^4 n = 3, 23 islets. P-value was calculated using two-sided Fisher’s exact test to compare islets without (score 0) and with (score 1-4) insulitis. Pancreas tissue was histologically analyzed from 2–3 animals per group. Representative hematoxylin and eosin (H&E) stained images of islets from each group are shown (right panel). Scale bars, 50 μm.
given free access to water and standard rodent chow and were acclimated to their environment for at least 1 week before experimentation.
4.5 STZ-induced type 1 diabetes in mice
Induction of Diabetes T1D was induced by administration of streptozotocin (STZ) (Sigma-Aldrich) (50 mg/kg dissolved in sodium citrate buffer, pH 4.5) to 6-8 weeks old C57Bl/6J mice intraperitoneally (i.p.) once each day for 5 consecutive days.
Mice were given water supplemented with 10% sucrose (Sigma-Aldrich) for six days to prevent sudden hypoglycemia during streptozotocin administration.
of FSSE, azaF1SSazaE4 or saline. Blood glucose with either FreeStyle Lite blood glucose meter (Abbot Diabetes Care, Inc.) or Bayer Contour blood glucose meter (Bayer HealthCare, LLC.) and body weight were measured once weekly. At the end of each study, mice were euthanized by CO2 asphyxiation. Blood and pancreas were collected for further analysis.
Pancreas were fixed in 10% formalin and processed for paraffin embedding (AML Laboratory and Genecopoeia). 7-μm-thick sections were stained with hematoxylin/eosin (Genecopoeia) and the degree of insulitis was eva luated microscopically. Islets were analyzed in multiple sections at 20×.

rats = experiment: Acute blood pressure monitoring (mean arterial pressure) in anesthetized rats; assay type: in vivo, rat; details: Icatibant 10 µg/kg IV-bolus 15 min before azaF^8-BK
Protocol: Each grey data point represents one animal. Mean values (with SEM where indicated) for animals given experimental agent were compared with vehicle.
Next, in vivo bioactivity of aza-BK analogues was evaluated in an acute blood pressure monitoring study in rats[61] based on the known blood pressure lowering effect of BK. Briefly, rats were anesthetized and changes in mean arterial blood pressure (MAP) were recorded during intravenous (IV) injection of test agents (6.4 µg/kg) (Fig. 4b).
Statistical analysis. […] Data are presented as means ± SEM unless otherwise stated. Differences between treatment groups were determined by 2-tailed Unpaired t-test; p value less than 0.05 was considered statistically significant. […] P values less than 0.05 were considered statistically significant.
5.2 Surgical procedure and physiological blood pressure measurement
Adult male Sprague Dawley rats (n = 22, weight: 300 – 350 gm; age: 8 – 10 weeks) from Charles River Labs were used under the approval of Institutional Animal Care and Use Committee at The Feinstein Institutes for Medical Research
Rats were anesthetized using isoflurane at 1-3 %. Body temperature was maintained at 37°C using a heating pad. […] All physiological signals were registered using PowerLab, BioAmp and BridgeAmp (ADInstruments, CO, USA), which were recorded on a computer using LabChart v8 software (ADInstruments, CO, USA). […]

| Molecule | HMGB1-induced TNF production (murine monocytes) | liver function enzymes and plasma cytokines / pro-inflammatory markers [1] | liver function enzymes and plasma cytokines / pro-inflammatory markers ([1]; listed as azaF1SSazaE4) | protection / survival in APAP toxicity model [1] | protection / survival in APAP toxicity model ([1]; listed as azaF1SSazaE4) | longer half-life than native FSSE peptide [2] [fold] | half-life (in vitro) [h] | diabetes-induced body weight loss [3] | severity of insulitis (insulitis scores) ([3]; 2 weeks of treatment, H&E) | level of blood glucose ([3]; day 7 and 14) | serum levels of insulin ([3]; day 14, ELISA) | development of hyperglycemia ([3]; vs diabetic (saline) group) | effect of pretreatment on azaF^8-BK (68)-induced lowering of blood pressure (rats) |
| --- | --- | --- | --- | --- | --- | --- | --- | --- | --- | --- | --- | --- | --- |
| NC(=O)N(CCC(=O)O)NC(=O)[C@H](CO)NC(=O)[C@H](CO)NC(=O)N(N)Cc1ccccc1 [Compound 51, azaF^1SSazaE^4-NH2] | dose-dependently reduced | improved liver function enzymes as well as plasma cytokines | reduced APAP-induced pro-inflammatory markers and serum liver enzymes | protective | improves survival | > 60 | > 2 | hindered diabetes-induced body weight loss | much lower than that of FSSE-treated mice; also recorded: reduced | significantly attenuated | successfully restored | delayed the development of hyperglycemia | – |
| icatibant | – | – | – | – | – | – | – | – | – | – | – | – | partial inhibition |
